Laboratory results as given in ChEMBL document CHEMBL1201862, “PubChem BioAssay data set” (2004).
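Protocol summary: plate cells (96-well), add compound at 5 concentrations, incubate 48 h, interpolate endpoints linearly. GI50 = concentration required for 50% inhibition of growth.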 Activity calls are given as the source filed them. No stated cut-off is given here; in the data, active = GI50 up to about 1.1 µM and inactive = higher.

Assays:
Experiment in all cases: NCI tumour cell line growth inhibition, 48 h
786-0 = system: 786-0
A498 = system: A498
A549 = system: A549
DLD-1 = system: DLD-1
HCT-15 = system: HCT-15
K562 = system: K562
KM12 = system: KM12
LXFL 529 = system: LXFL 529
OVCAR-8 = system: OVCAR-8
SK-MEL-28 = system: SK-MEL-28
SK-MEL-5 = system: SK-MEL-5
SW-620 = system: SW-620
TK-10 = system: TK-10
UACC-62 = system: UACC-62
BT-549 = system: BT-549
MDA-MB-435 = system: MDA-MB-435
Malme-3M = system: Malme-3M
PC-3 = system: PC-3
T47D = system: T47D

Compound | GI50 (786-0) | GI50 (A498) | GI50 (A549) | GI50 (DLD-1) | GI50 (HCT-15) [µM] | GI50 (K562) | GI50 (KM12) | GI50 (LXFL 529) | GI50 (OVCAR-8) | GI50 (SK-MEL-28) | GI50 (SK-MEL-5) | GI50 (SW-620) | GI50 (TK-10) | GI50 (UACC-62) | GI50 (BT-549) | GI50 (MDA-MB-435) | GI50 (Malme-3M) | GI50 (PC-3) | GI50 (T47D)
C=C(CO)CC(/C=C(\C)CC/C=C(\C)CCl)OC(C)=O (stereo not drawn) | > 100 µM (inactive) | > 100 µM (inactive) | > 100 µM (inactive) | > 100 µM (inactive) | > 100 | > 100 µM (inactive) | > 100 µM (inactive) | > 100 µM (inactive) | > 100 µM (inactive) | > 100 µM (inactive) | > 100 µM (inactive) | > 100 µM (inactive) | > 100 µM (inactive) | > 100 µM (inactive) |  |  |  |  | 
Cc1ccc2nc(C(=O)O)c(=O)[nH]c2c1 | > 100 µM (inactive) | > 100 µM (inactive) | > 100 µM (inactive) |  | > 100 | > 100 µM (inactive) | > 100 µM (inactive) |  | > 100 µM (inactive) | > 100 µM (inactive) | > 100 µM (inactive) | > 100 µM (inactive) | > 100 µM (inactive) | > 100 µM (inactive) | > 100 µM (inactive) | > 100 µM (inactive) | > 100 µM (inactive) | > 100 µM (inactive) | > 100 µM (inactive)
CCOc1ccc(NC(=O)C2=C(C)NC(C)=C(C(=O)Nc3ccc(OCC)cc3)C2c2ccc(O)c(OC)c2)cc1 | 48.9 µM (inactive) | 19.3 µM (inactive) | > 100 µM (inactive) | 96.2 µM (inactive) |  | 40.8 µM (inactive) | 47.9 µM (inactive) | 67.3 µM (inactive) | 87.3 µM (inactive) | 53.2 µM (inactive) | 46 µM (inactive) | > 100 µM (inactive) | > 100 µM (inactive) |  |  |  | 64.1 µM (inactive) |  | 
O=[N+]([O-])c1cccc2nc3ccccc3c(NCCCN3CCCCC3)c12 | < 0.01 µM (active) | < 0.0115 µM (active) | < 0.01 µM (active) |  | 0.0158 | < 0.0123 µM (active) | 0.014 µM (active) |  | 0.0132 µM (active) | 0.0417 µM (active) | < 0.011 µM (active) | < 0.01 µM (active) | 0.0256 µM (active) | 0.0151 µM (active) | 0.0286 µM (active) | 0.0106 µM (active) | 0.0164 µM (active) | < 0.01 µM (active) | 0.0179 µM (active)
CCOC(=O)c1cnccc1CC1(C#N)c2ccccc2C=CN1C(=O)c1ccccc1 (stereo not drawn) | 29.7 µM (inactive) | 96.4 µM (inactive) | 34.4 µM (inactive) |  | 31 | 6.93 µM (inactive) | 13.3 µM (inactive) |  | 16.2 µM (inactive) | 58.2 µM (inactive) | 15.3 µM (inactive) | 47.3 µM (inactive) | 37.5 µM (inactive) | 23.9 µM (inactive) | 51.6 µM (inactive) | 35.6 µM (inactive) | 6.17 µM (inactive) | 20.4 µM (inactive) | 24.4 µM (inactive)
CCCCCCCCCCCCCCCCCCNc1nc(=O)n(C2CC(O)C(COP(=O)(O)O)O2)cc1F (stereo not drawn) | 45.2 µM (inactive) | 6.27 µM (inactive) | 17.4 µM (inactive) |  | > 100 | > 100 µM (inactive) | > 72.8 µM (inactive) |  | 27.4 µM (inactive) | > 100 µM (inactive) | > 100 µM (inactive) | > 100 µM (inactive) | > 100 µM (inactive) | > 78.2 µM (inactive) | > 100 µM (inactive) | > 100 µM (inactive) | > 100 µM (inactive) | 26.1 µM (inactive) | 42.9 µM (inactive)
CCN(CC)CCN(C)c1ccc(CO)c2c1c(=O)c1ccccc1[s+]2[O-] (stereo not drawn) | 1.71 µM (inactive) | 10.7 µM (inactive) | 11.3 µM (inactive) |  | 4.2 | 3.83 µM (inactive) | 1.98 µM (inactive) |  | 1.8 µM (inactive) | 5.05 µM (inactive) | 2.45 µM (inactive) | 1.88 µM (inactive) | 16.9 µM (inactive) | 7.06 µM (inactive) | 13.8 µM (inactive) | 2 µM (inactive) | 11.9 µM (inactive) | 13.7 µM (inactive) | 13.4 µM (inactive)
CNC(C#N)c1ccc(OC)cc1 (stereo not drawn) | > 100 µM (inactive) | > 100 µM (inactive) | > 100 µM (inactive) |  | > 100 | 34.1 µM (inactive) | 78.9 µM (inactive) |  | > 100 µM (inactive) | > 100 µM (inactive) | 25.8 µM (inactive) | 94.2 µM (inactive) | > 100 µM (inactive) | > 100 µM (inactive) | > 100 µM (inactive) | 33.6 µM (inactive) | > 100 µM (inactive) | 54 µM (inactive) | 61.5 µM (inactive)
CCC/C(C)=N/NC(=S)SC.CCC/C(C)=N/NC(=S)SC.[Zn+2] | 10.9 µM (inactive) | 22.2 µM (inactive) | 12.6 µM (inactive) |  | 2.24 | 16.6 µM (inactive) | 11.5 µM (inactive) |  | 1.89 µM (inactive) | 16 µM (inactive) | 11.2 µM (inactive) | 9.44 µM (inactive) | 11.6 µM (inactive) | 10.9 µM (inactive) | 10.6 µM (inactive) | 11.4 µM (inactive) | 2.9 µM (inactive) | 12.4 µM (inactive) | 11.5 µM (inactive)
CCN(CC)C1CCC(C2c3cc4c(cc3OC(N3CCOCC3)C2C)OCO4)CC1 (stereo not drawn) | 33.7 µM (inactive) | 21 µM (inactive) | 27.5 µM (inactive) |  | 12.1 | 8.77 µM (inactive) | 16.8 µM (inactive) |  | 23.6 µM (inactive) | 16.3 µM (inactive) | 9.31 µM (inactive) | 16.1 µM (inactive) | > 30.6 µM (inactive) | 16.7 µM (inactive) | 16.9 µM (inactive) | 6.81 µM (inactive) | 21.6 µM (inactive) | 10.4 µM (inactive) | 14.4 µM (inactive)
CCOC1CN=C(Nc2cccc3ccccc23)S1 (stereo not drawn) | > 10 µM (inactive) | > 10 µM (inactive) | > 10 µM (inactive) |  | > 10 | > 10 µM (inactive) | > 10 µM (inactive) |  | > 10 µM (inactive) | > 10 µM (inactive) | > 10 µM (inactive) | > 10 µM (inactive) | > 10 µM (inactive) | > 10 µM (inactive) | > 10 µM (inactive) | > 10 µM (inactive) | > 10 µM (inactive) | > 10 µM (inactive) | > 10 µM (inactive)
CC(C)CC1c2[nH]c3ccccc3c2C[C@H]2C(=O)NC(Cc3c[nH]c4ccccc34)C(=O)N12 (stereo partly drawn) | 17.5 µM (inactive) | 16.8 µM (inactive) | 12.5 µM (inactive) |  | 14.6 | 11.5 µM (inactive) | 13.4 µM (inactive) |  | 15.9 µM (inactive) | 17.3 µM (inactive) | 12.7 µM (inactive) | 18.1 µM (inactive) | 4.93 µM (inactive) | 16 µM (inactive) | 16.9 µM (inactive) | 16 µM (inactive) | 14.6 µM (inactive) | 11.1 µM (inactive) | 6.61 µM (inactive)
C/C(=N\NC(=S)N1CCCCC1)c1nc2cccnc2[nH]1 | 18 µM (inactive) | 17.2 µM (inactive) | 6.7 µM (inactive) |  | 5.81 | 6.9 µM (inactive) | 9.02 µM (inactive) |  | 4.19 µM (inactive) | 16 µM (inactive) | 4.03 µM (inactive) | 6.38 µM (inactive) | 21.3 µM (inactive) | 13.7 µM (inactive) | 4.3 µM (inactive) | 15.1 µM (inactive) | 27.9 µM (inactive) | 5.3 µM (inactive) | 5.08 µM (inactive)
O=C1c2ccccc2C(=O)N1n1c(Cc2ccccc2)n[nH]c1=O | > 100 µM (inactive) | > 100 µM (inactive) | > 100 µM (inactive) |  | > 100 | > 100 µM (inactive) | > 100 µM (inactive) |  | > 100 µM (inactive) | > 100 µM (inactive) | > 100 µM (inactive) | > 100 µM (inactive) | > 100 µM (inactive) | > 100 µM (inactive) | > 100 µM (inactive) | > 100 µM (inactive) | > 100 µM (inactive) | > 100 µM (inactive) | > 100 µM (inactive)
COC1=C(OC)C(=O)C(Sc2ccc3ccccc3c2)=CC1=O | 3.72 µM (inactive) | 14.7 µM (inactive) | 12 µM (inactive) |  | 9.68 | 2.99 µM (inactive) | 5.86 µM (inactive) |  | 10.4 µM (inactive) | 16.3 µM (inactive) | 3.1 µM (inactive) | 3.5 µM (inactive) | 12.2 µM (inactive) | 7.64 µM (inactive) | 9.2 µM (inactive) | 4.25 µM (inactive) | 11.9 µM (inactive) | 10 µM (inactive) | 5.58 µM (inactive)
Cc1c2ccccc2c(C)n2c1nc1ccccc12 | 4.68 µM (inactive) | 5.42 µM (inactive) | 4.37 µM (inactive) |  | 4.54 | 4.1 µM (inactive) | 7.53 µM (inactive) |  | 4.97 µM (inactive) | 7.85 µM (inactive) | 4.44 µM (inactive) | 3.73 µM (inactive) | 13.4 µM (inactive) | 10.2 µM (inactive) | 15.1 µM (inactive) | 6.1 µM (inactive) | 8.69 µM (inactive) | 6.98 µM (inactive) | 17.5 µM (inactive)
O=C1OCCC1(Cc1ccc(Cl)cc1)Cc1ccc(Cl)cc1 | 64.6 µM (inactive) | 46 µM (inactive) | > 100 µM (inactive) | > 100 µM (inactive) |  | > 100 µM (inactive) | > 100 µM (inactive) | > 100 µM (inactive) | 64.6 µM (inactive) | > 100 µM (inactive) |  | > 100 µM (inactive) | 46.8 µM (inactive) | > 100 µM (inactive) |  |  | > 100 µM (inactive) |  | 
